# Data as given in the kinase profiling compilation of Christmann-Franck et al. (2016).
# Key:
# [1] = target: IRAK3 (human) (UniProt Q9Y616); test: KINOMEscan competition binding; conditions: compound 10.0 µM
# [2] = target: MAP3K7 (human) (UniProt O43318); test: KINOMEscan competition binding; conditions: compound 10.0 µM
# [3] = target: ALK (human) (UniProt Q9UM73); test: KINOMEscan competition binding; conditions: compound 10.0 µM
# [4] = target: JAK1 JH2 pseudokinase (human) (UniProt P23458); test: KINOMEscan competition binding; conditions: compound 10.0 µM
# [5] = target: EPHB1 (human) (UniProt P54762); test: KINOMEscan competition binding; conditions: compound 10.0 µM
# [6] = target: CAMK2G (human) (UniProt Q13555); test: KINOMEscan competition binding; conditions: compound 10.0 µM
# [7] = target: CSNK1E (human) (UniProt P49674); test: KINOMEscan competition binding; conditions: compound 10.0 µM
# [8] = target: EPHA1 (human) (UniProt P21709); test: KINOMEscan competition binding; conditions: compound 10.0 µM
# [9] = target: RIOK2 (human) (UniProt Q9BVS4); test: KINOMEscan competition binding; conditions: compound 10.0 µM
# [10] = target: CDK14 (human) (UniProt O94921); test: KINOMEscan competition binding; conditions: compound 10.0 µM
# [11] = target: CDK5 (human) (UniProt Q00535); test: KINOMEscan competition binding; conditions: compound 10.0 µM
# [12] = target: ACVR1 (human) (UniProt Q04771); test: KINOMEscan competition binding; conditions: compound 10.0 µM
# [13] = target: NTRK1 (human) (UniProt P04629); test: KINOMEscan competition binding; conditions: compound 10.0 µM
# [14] = target: MAPK1 (human) (UniProt P28482); test: KINOMEscan competition binding; conditions: compound 10.0 µM
# [15] = target: IKBKE (human) (UniProt Q14164); test: KINOMEscan competition binding; conditions: compound 10.0 µM
# [16] = target: PRKG2 (human) (UniProt Q13237); test: KINOMEscan competition binding; conditions: compound 10.0 µM
# [17] = target: CLK1 (human) (UniProt P49759); test: KINOMEscan competition binding; conditions: compound 10.0 µM
# [18] = target: PRPF4B (human) (UniProt Q13523); test: KINOMEscan competition binding; conditions: compound 10.0 µM
# [19] = target: PKN3 (M.tuberculosis) (UniProt Q6P5Z2); test: KINOMEscan competition binding; conditions: compound 10.0 µM
# [20] = target: ULK3 (human) (UniProt Q6PHR2); test: KINOMEscan competition binding; conditions: compound 10.0 µM
# [21] = target: RIPK1 (human) (UniProt Q13546); test: KINOMEscan competition binding; conditions: compound 10.0 µM
# [22] = test system: KIT (human), P10721 [V559D/T670I]; test: KINOMEscan competition binding; conditions: compound 10.0 µM
# [23] = target: CSNK1A1 (human) (UniProt P48729); test: KINOMEscan competition binding; conditions: compound 10.0 µM
# [24] = target: PRKAA1 (human) (UniProt Q13131); test: KINOMEscan competition binding; conditions: compound 10.0 µM
# [25] = target: PKN2 (human) (UniProt Q16513); test: KINOMEscan competition binding; conditions: compound 10.0 µM
# [26] = target: CSNK2A1 (human) (UniProt P68400); test: KINOMEscan competition binding; conditions: compound 10.0 µM
# [27] = target: SGK110 (human) (UniProt P0C264); test: KINOMEscan competition binding; conditions: compound 10.0 µM
# [28] = target: NEK5 (human) (UniProt Q6P3R8); test: KINOMEscan competition binding; conditions: compound 10.0 µM
# [29] = target: FES (human) (UniProt P07332); test: KINOMEscan competition binding; conditions: compound 10.0 µM
# [30] = target: PAK1 (human) (UniProt Q13153); test: KINOMEscan competition binding; conditions: compound 10.0 µM
# [31] = target: SRMS (human) (UniProt Q9H3Y6); test: KINOMEscan competition binding; conditions: compound 10.0 µM
# [32] = target: OXSR1 (human) (UniProt O95747); test: KINOMEscan competition binding; conditions: compound 10.0 µM
# [33] = test system: MET (human), P08581 [Y1235D]; test: KINOMEscan competition binding; conditions: compound 10.0 µM
# [34] = target: TEC (human) (UniProt P42680); test: KINOMEscan competition binding; conditions: compound 10.0 µM
# [35] = target: MINK1 (human) (UniProt Q8N4C8); test: radiometric filter-binding kinase assay
# [36] = target: MAP2K1 (human) (UniProt Q02750); test: radiometric filter-binding kinase assay
# [37] = target: PLK1 (human) (UniProt P53350); test: radiometric filter-binding kinase assay
# [38] = test system: PRKAA1 or PRKAA2 (rat); test: radiometric filter-binding kinase assay; conditions: accession and sequence are those of the human protein
# [39] = target: MAPK8 (human) (UniProt P45983); test: radiometric filter-binding kinase assay
# Chain of MAPK8 (human) (P45983 whole entry, looked up): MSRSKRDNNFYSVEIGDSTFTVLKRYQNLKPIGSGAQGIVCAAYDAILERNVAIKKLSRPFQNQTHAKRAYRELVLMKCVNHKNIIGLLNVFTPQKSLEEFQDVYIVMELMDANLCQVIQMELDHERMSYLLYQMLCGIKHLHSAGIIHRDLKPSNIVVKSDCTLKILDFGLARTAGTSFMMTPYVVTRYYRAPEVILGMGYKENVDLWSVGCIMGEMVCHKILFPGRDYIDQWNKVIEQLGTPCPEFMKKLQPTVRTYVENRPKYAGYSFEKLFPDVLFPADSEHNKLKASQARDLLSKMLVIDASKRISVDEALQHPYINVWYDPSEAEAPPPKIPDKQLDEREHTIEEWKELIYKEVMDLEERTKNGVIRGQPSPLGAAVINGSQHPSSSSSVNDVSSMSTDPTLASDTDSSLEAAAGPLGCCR
# Chain of PLK1 (human) (P53350 whole entry, looked up): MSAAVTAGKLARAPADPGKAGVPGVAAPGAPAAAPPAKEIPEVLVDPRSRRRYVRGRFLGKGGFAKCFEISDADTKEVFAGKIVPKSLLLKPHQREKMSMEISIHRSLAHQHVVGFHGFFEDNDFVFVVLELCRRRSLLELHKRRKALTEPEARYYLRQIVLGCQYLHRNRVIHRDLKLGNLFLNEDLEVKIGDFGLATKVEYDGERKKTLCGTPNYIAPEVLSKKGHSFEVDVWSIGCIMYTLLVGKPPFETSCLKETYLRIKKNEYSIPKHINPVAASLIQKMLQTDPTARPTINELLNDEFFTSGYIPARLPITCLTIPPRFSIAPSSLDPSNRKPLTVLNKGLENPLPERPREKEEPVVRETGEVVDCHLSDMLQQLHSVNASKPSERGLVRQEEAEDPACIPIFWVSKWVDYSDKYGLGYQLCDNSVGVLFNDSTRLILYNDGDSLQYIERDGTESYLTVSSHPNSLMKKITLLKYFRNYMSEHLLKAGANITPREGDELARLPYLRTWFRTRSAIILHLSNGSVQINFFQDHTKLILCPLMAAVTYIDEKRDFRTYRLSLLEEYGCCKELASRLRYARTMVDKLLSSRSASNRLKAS
# Chain of MAP2K1 (human) (Q02750 whole entry, looked up): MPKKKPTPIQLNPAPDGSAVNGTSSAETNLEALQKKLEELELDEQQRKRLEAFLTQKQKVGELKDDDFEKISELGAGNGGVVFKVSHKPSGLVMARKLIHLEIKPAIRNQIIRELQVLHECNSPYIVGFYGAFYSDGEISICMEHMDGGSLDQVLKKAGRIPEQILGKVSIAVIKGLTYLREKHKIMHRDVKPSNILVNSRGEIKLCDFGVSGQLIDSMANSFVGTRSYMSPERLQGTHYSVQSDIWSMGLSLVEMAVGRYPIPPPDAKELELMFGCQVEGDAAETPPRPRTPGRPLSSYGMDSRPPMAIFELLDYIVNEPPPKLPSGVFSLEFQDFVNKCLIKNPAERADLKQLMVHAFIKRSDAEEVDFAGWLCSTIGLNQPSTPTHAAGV
# Chain of MINK1 (human) (Q8N4C8 whole entry, looked up): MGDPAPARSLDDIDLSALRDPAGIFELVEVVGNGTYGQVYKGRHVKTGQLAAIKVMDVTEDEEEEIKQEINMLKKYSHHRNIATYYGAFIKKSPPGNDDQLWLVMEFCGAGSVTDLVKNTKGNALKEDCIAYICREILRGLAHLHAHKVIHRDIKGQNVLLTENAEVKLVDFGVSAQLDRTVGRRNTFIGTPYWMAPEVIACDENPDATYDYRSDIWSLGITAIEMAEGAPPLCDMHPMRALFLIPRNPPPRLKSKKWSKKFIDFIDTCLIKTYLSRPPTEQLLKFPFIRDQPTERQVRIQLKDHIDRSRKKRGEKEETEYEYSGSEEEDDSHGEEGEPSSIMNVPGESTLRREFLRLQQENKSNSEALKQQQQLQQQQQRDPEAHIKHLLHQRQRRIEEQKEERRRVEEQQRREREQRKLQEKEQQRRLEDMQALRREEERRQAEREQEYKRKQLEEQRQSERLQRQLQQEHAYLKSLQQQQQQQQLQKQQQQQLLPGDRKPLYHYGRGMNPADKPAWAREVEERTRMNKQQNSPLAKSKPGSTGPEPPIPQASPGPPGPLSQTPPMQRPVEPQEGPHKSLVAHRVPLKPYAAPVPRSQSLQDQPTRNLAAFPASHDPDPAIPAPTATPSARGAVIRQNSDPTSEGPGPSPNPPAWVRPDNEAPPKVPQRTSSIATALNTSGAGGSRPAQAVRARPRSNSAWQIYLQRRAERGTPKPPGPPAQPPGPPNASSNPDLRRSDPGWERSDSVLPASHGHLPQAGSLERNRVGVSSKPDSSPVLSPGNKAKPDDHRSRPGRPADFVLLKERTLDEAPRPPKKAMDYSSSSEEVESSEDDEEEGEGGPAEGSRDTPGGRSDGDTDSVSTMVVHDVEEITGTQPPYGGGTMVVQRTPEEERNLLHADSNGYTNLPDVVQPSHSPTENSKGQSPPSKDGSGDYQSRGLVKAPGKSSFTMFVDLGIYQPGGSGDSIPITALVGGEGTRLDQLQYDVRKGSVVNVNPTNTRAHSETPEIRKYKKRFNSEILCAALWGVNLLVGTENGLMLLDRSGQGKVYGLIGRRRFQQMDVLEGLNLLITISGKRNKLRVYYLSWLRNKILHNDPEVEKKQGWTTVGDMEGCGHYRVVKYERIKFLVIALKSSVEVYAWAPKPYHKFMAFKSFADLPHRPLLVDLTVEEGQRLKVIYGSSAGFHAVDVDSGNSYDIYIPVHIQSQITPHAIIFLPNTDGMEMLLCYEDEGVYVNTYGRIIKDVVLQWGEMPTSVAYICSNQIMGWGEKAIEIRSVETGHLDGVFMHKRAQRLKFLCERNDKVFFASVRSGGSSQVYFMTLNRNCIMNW
# Chain of MAPK1 (human) (P28482 whole entry, looked up): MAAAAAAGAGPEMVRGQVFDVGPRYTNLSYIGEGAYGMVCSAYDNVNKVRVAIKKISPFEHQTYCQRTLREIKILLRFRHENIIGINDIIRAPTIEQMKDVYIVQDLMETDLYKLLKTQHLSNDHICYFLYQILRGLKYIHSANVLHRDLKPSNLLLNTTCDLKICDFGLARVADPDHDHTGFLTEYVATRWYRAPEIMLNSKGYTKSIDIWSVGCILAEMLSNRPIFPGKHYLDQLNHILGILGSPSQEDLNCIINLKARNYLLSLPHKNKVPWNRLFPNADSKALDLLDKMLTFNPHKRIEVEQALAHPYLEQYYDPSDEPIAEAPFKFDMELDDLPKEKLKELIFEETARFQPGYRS
# Chain of JAK1 JH2 pseudokinase (human) (P23458 whole entry, looked up): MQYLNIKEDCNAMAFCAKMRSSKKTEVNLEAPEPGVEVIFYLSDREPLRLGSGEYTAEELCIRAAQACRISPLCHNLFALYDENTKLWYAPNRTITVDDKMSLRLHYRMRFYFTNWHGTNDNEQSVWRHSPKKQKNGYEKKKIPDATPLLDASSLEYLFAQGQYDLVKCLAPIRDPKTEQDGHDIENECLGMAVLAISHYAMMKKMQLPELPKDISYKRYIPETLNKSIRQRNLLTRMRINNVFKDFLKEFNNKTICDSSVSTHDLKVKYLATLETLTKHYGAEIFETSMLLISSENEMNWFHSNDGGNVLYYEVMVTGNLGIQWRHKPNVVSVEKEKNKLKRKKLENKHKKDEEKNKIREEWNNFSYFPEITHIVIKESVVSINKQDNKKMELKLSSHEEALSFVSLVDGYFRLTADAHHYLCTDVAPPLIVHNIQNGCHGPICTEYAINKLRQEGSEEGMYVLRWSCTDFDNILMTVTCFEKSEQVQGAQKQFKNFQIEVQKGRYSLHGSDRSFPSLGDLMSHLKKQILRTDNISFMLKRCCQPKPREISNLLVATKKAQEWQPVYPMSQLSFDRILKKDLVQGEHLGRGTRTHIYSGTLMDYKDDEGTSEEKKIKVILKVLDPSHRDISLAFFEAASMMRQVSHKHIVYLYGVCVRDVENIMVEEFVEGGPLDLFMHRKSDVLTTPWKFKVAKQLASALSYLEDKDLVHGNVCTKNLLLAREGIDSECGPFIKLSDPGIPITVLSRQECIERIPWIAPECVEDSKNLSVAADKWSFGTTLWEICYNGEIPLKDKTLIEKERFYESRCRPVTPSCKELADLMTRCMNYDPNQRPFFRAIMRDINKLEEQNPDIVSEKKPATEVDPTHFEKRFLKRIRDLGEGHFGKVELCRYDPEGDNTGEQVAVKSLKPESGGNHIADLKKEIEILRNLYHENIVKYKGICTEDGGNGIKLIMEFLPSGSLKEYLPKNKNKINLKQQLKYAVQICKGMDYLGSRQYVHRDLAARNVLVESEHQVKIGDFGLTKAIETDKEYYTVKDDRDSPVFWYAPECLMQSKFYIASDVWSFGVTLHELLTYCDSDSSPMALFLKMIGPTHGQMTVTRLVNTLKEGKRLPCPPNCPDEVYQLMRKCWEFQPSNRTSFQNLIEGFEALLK
# Chain of PRKAA1 (human) (Q13131 whole entry, looked up): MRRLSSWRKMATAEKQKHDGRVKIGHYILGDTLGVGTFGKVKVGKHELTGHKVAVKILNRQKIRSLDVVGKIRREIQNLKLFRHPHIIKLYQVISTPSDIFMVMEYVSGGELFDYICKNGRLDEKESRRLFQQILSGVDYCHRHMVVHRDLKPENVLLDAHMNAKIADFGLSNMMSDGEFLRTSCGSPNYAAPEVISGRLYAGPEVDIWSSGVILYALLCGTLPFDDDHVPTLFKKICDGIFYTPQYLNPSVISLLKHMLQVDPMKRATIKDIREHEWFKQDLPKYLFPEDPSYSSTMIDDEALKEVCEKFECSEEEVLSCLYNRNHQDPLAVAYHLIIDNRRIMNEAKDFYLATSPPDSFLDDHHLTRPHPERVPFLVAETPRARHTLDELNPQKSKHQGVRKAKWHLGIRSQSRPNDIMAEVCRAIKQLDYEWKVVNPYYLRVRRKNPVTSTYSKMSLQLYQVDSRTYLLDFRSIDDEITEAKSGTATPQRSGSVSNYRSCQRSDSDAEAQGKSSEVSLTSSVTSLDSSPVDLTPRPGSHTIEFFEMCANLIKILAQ
smiles,measurement,setting,value
COc1cc(C(=O)N2CCC(N3CCN(C)CC3)CC2)ccc1Nc1ncc2c(n1)N(C)c1ccccc1C(=O)N2C,"kinase still bound, per cent of control",[1],100%
same,"kinase still bound, per cent of control",[2],98%
same,"kinase still bound, per cent of control",[3],13%
same,"kinase still bound, per cent of control",[4],92%
same,"kinase still bound, per cent of control",[5],98%
same,"kinase still bound, per cent of control",[6],47%
same,"kinase still bound, per cent of control",[7],95%
same,"kinase still bound, per cent of control",[8],100%
same,"kinase still bound, per cent of control",[9],100%
same,residual activity,[10],81%
same,residual activity,[11],81%
same,"kinase still bound, per cent of control",[12],98%
same,"kinase still bound, per cent of control",[13],69%
same,"kinase still bound, per cent of control",[14],85%
same,"kinase still bound, per cent of control",[15],96%
same,"kinase still bound, per cent of control",[16],74%
same,"kinase still bound, per cent of control",[17],28%
same,"kinase still bound, per cent of control",[18],93%
same,"kinase still bound, per cent of control",[19],100%
same,"kinase still bound, per cent of control",[20],100%
same,"kinase still bound, per cent of control",[21],99%
same,"kinase still bound, per cent of control",[22],81%
same,"kinase still bound, per cent of control",[23],100%
same,"kinase still bound, per cent of control",[24],51%
same,"kinase still bound, per cent of control",[25],95%
same,"kinase still bound, per cent of control",[26],100%
same,"kinase still bound, per cent of control",[27],62%
same,"kinase still bound, per cent of control",[28],100%
same,"kinase still bound, per cent of control",[29],84%
same,"kinase still bound, per cent of control",[30],95%
same,"kinase still bound, per cent of control",[31],77%
same,"kinase still bound, per cent of control",[32],88%
same,"kinase still bound, per cent of control",[33],100%
same,"kinase still bound, per cent of control",[34],100%
same,residual activity,[35]; compound 1.0 µM,99%
same,residual activity,[35]; compound 10.0 µM,108%
same,residual activity,[36]; compound 1.0 µM,94%
same,residual activity,[36]; compound 10.0 µM,86%
same,IC50,[37],> 100 µM
same,residual activity,[37]; compound 1.0 µM,73%
same,residual activity,[37]; compound 10.0 µM,35%
same,residual activity,[38]; compound 1.0 µM,70%
same,residual activity,[38]; compound 10.0 µM,46%
same,residual activity,[39]; compound 1.0 µM,85%
same,residual activity,[39]; compound 10.0 µM,96%
